Data from patent EP0602242A1, “BENZISOXAZOLE COMPOUND AND USE THEREOF” (priority 1991, dated 1993).
Where a name gives a salt, the structure may show the parent alone. Read-outs that look alike come from different tables or passages of the source.

Columns and labels:
[1] = target: butyrylcholinesterase (BChE) derived from human (Homo sapiens, UniProt P06276); experiment: biochemical
[2] = target: acetylcholinesterase (AChE) derived from human (Homo sapiens, UniProt P22303); experiment: biochemical
acetylcholinesterase (AChE) derived from human, sequence (P22303 32-614): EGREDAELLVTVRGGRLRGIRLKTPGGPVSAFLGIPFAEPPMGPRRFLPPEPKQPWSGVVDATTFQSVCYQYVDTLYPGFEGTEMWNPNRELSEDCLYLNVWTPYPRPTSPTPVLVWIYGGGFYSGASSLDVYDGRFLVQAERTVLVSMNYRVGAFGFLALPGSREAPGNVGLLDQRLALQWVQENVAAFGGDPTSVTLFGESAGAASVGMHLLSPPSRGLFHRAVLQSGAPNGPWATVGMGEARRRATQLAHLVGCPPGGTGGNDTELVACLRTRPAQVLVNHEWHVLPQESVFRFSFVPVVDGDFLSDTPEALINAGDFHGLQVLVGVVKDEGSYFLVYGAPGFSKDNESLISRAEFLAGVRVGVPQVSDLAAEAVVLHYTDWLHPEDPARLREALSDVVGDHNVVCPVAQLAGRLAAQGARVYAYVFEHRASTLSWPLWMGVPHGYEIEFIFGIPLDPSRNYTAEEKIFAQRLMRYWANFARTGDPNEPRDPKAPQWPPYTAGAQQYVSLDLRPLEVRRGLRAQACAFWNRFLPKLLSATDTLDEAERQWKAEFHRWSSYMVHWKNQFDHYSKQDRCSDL

[3] = Acute toxicity after oral administration; details: rat, in vivo; oral administration to rats; read-out: acute toxicity values (LD₅₀)
Procedure: The acute toxicity values (LD₅₀) of the compounds of the present invention 6 and 41 after oral administration to rats were not less than 50 mg/kg.

sigma receptor = experiment: Sigma receptor binding test (3H-DTG, rat cerebral cortex membrane fractions); parameters: species or system Male Wistar rats; details: rat cerebral cortex membranes, 3H-DTG 2.5 nM, 25°C 60 minutes, Ki = IC50/[1 + (L/Kd)], Kd 26.3 nM; read-out: Sigma receptor binding assay ³H-DTG (Ki)
Procedure: Male Wistar rats weighing 250-300 g were decapitated and the brains were removed. Cerebral cortex was dissected on ice, and the brain tissues were homogenized in 20 volumes of Tris-HCl buffer (pH 8.0, 25°C) containing 320 mM sucrose. The homogenate was centrifuged at 1000 × g for 10 minutes. The obtained supernatant was centrifuged at 31,000 × g for 15 minutes and the pellets obtained were suspended in the same Tris-HCl buffer, followed by incubation at 37°C for 10 minutes. Centrifugation was repeated twice and the final pellets were suspended in 50 mM Tris-HCl buffer (pH 8.0, 25°C) and used as membrane fractions.
A binding inhibitory test was conducted by adding [³H]-1,3-di-o-tolylguanidine (³H-DTG, 39.4 Ci/mmol, New England Nuclear, final concentration 2.5 nM) and respective test compounds (5 different concentrations) to the membrane fractions (0.9 ml, 0.5-0.8 mg) and then the above-mentioned buffer to the final volume of 1 ml. The mixtures were incubated at 25°C for 60 minutes. The reaction mixture was suction-filtered through Whatman GF/B filters which had been treated previously with 0.1% polyethyleneimine and washed three times with 3 ml of 10 mM Tris-HCl buffer (pH 7.7, 25°C). Then, the β rays of the bound ³H-DTG on the filter were measured by a liquid scintillation counter.
IC₅₀ values were determined graphically and Ki values were calculated by the numerical equation Ki = IC₅₀/[1 + (L/Kd)] [formula] wherein L is a concentration of radioligand and Kd (26.3 nM) is a dissociation constant between tritiated ligand and the receptor.

[4] = target: T1, acetylcholinesterase (AChE) (Rattus norvegicus, UniProt P37136); experiment: biochemical; parameters: species or system male Wistar rat
T1 construct: An enzyme solution was a homogenized solution of forebrain from male Wistar rat; from tissue; host or cells: forebrain of male Wistar rat (homogenate)
T1 sequence (P37136 32-614): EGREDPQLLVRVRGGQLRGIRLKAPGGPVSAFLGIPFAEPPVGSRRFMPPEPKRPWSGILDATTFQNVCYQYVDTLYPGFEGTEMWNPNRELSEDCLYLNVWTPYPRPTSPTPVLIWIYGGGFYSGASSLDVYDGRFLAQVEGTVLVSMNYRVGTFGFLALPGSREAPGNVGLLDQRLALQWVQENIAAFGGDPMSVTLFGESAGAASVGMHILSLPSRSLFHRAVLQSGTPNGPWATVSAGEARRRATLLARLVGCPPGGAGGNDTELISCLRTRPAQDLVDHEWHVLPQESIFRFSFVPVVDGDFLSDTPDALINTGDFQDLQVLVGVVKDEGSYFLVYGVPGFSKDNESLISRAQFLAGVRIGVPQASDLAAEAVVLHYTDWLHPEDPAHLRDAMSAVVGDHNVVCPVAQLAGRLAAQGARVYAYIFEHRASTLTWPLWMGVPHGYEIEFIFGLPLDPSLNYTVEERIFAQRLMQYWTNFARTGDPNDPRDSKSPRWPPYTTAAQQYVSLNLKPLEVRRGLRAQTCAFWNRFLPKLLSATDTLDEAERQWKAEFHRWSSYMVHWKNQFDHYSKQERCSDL
Procedure: An enzyme solution was a homogenized solution of forebrain from male Wistar rat in 0.1M phosphate buffer (pH 8.0). Acetylthiocholine was used as a substrate for acetylcholinesterase (AChE) and the density of thionitrobenzoate (yellow) produced by the following reaction was measured with a spectrophotometer (OD₄₁₂). [drawing 27] Thiocholine + dithiobisnitrobenzoate → thionitrobenzoate Test compounds were dissolved in dimethylsulfoxide and diluted with 0.1M phosphate buffer (pH 8.0).

[5] = BChE derived from human, substrate butyrylthiocholine, read-out: IC₅₀ BChE
[6] = AChE derived from human, substrate acetylthiocholine, read-out: IC₅₀ AChE
[7] = IC50 for human BChE divided by IC50 for human AChE
[8] = homogenized forebrain of male Wistar rat, substrate acetylthiocholine, 0.1M phosphate buffer pH 8.0, read-out: Acetylcholinesterase inhibition IC₅₀

butyrylcholinesterase (BChE) derived from human, sequence (P06276 29-602): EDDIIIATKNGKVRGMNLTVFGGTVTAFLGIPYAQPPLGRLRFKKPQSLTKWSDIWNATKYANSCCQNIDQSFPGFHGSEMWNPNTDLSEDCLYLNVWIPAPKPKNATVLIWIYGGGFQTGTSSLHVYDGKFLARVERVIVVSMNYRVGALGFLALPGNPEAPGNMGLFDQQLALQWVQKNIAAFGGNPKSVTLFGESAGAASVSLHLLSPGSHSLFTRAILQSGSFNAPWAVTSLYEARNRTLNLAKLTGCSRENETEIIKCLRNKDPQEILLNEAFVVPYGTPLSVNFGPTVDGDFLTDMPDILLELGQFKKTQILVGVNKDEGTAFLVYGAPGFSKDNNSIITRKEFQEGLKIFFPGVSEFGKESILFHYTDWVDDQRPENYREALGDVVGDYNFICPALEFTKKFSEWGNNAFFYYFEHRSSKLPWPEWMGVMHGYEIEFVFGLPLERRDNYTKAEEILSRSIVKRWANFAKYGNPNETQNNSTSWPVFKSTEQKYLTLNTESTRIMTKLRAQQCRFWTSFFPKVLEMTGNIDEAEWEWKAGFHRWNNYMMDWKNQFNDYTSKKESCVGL

| SMILES | IC50 [2, 6] [nM] | Selectivity IC₅₀ (BChE)/IC₅₀ (AChE) [2, 7] | Ki (sigma receptor) [nM] | other results |
| --- | --- | --- | --- | --- |
| CC(=O)N(C)c1ccc2c(CCC3CCN(Cc4ccccc4)CC3)noc2c1 [Example 41, 3-(2-(1-Benzyl-4-piperidyl)ethyl)-6-(N-methylacetamino)-1,2-benzisoxazole] | 4.6 | 3,700 | – | IC50 [1, 5]: 17000 nM; LD50 [3]: ≥ 50 mg/kg |
| Cc1ccc2c(OCCC3CCN(CC4CCCCC4)CC3)noc2c1 [Example 164, 3-(2-(1-Cyclohexylmethyl-4-piperidyl)ethyloxy)-6-methyl-1,2-benzisoxazole fumarate] | – | – | 0.37 | – |
| Cc1ccc2onc(OCCC3CCN(CC4CCCCC4)CC3)c2c1 [Example 160, 3-(2-(1-Cyclohexylmethyl-4-piperidyl)ethyloxy)-5-methyl-1,2-benzisoxazole fumarate] | – | – | 0.23 | – |
| Cc1ccc2on(CCC3CCN(CC4CCCCC4)CC3)c(=O)c2c1 [Example 231, 2-(2-(1-Cyclohexylmethyl-4-piperidyl)ethyl)-5-methyl-1,2-benzisoxazol-3(2H)-one fumarate] | – | – | 0.42 | – |
| CNC(=O)Oc1cccc(CN2CCC(CCc3noc4c(OC)c(OC)ccc34)CC2)c1 [Example 23, 3-(2-(1-(3-(N-methylcarbamoyloxy)benzyl)-4-piperidyl)ethyl)-6,7-dimethoxy-1,2-benzisoxazole] | – | – | – | IC50 [4]: 0.34 nM |
| O=C(Nc1ccc2c(=O)n(CCC3CCN(Cc4ccccc4)CC3)oc2c1)c1ccccc1 [Example 252, 6-Benzoylamino-2-(2-(1-benzyl-4-piperidyl)ethyl)-1,2-benzisoxazol-3(2H)-one] | – | – | – | IC50 [4, 8]: 0.73 nM |
| O=C(Nc1ccc2c(=O)n(CCCC3CCN(Cc4ccccc4)CC3)oc2c1)c1ccccc1 [Example 198, 6-benzoylamino-2-(3-(1-benzyl-4-piperidyl)propyl)-1,2-benzisoxazol-3(2H)-one] | 0.94 | 3,800 | – | IC50 [1, 5]: 3600 nM |
| CN(C)C(=S)Oc1ccc2c(CCC3CCN(Cc4ccccc4)CC3)noc2c1 [Example 11] | – | >20,000 | – | IC50 [1]: > 10000 nM; IC50 [2]: 0.5 nM |
| Cc1ccc2c(=O)n(CCC3CCN(CC4CCCCC4)CC3)oc2c1 [Example 227, 2-(2-(1-Cyclohexylmethyl-4-piperidyl)ethyl)-6-methyl-1,2-benzisoxazol-3(2H)-one fumarate] | – | – | 0.55 | – |
| COc1ccc2c(CCC3CCN(Cc4ccccc4)CC3)noc2c1OC [Example 19, 3-(2-(1-benzyl-4-piperidyl)ethyl)-6,7-dimethoxy-1,2-benzisoxazole] | 1.8 | 4,200 | – | IC50 [1, 5]: 7500 nM; IC50 [4, 8]: 0.38 nM |
| CC(=O)Nc1ccc2c(CCC3CCN(Cc4ccccc4)CC3)noc2c1 [Example 6, 6-acetylamino-3-(2-(1-benzyl-4-piperidyl)ethyl)-1,2-benzisoxazole] | 2.1 | – | – | IC50 [1]: 9500 nM; Selectivity IC₅₀ (BChE)/IC₅₀ (AChE) [2]: 4,500; LD50 [3]: ≥ 50 mg/kg |
